Results: patent publication US20260007613A1, “LONG-ACTING LOW-TOXICITY NOVEL CATIONIC LIPID COMPOUNDS AND COMPOSITION THEREOF” (BEIJING YOUCAREKECHUANG PHARMACEUTICAL TECHNOLOGY CO., LTD., priority 2023, published 2026)
“And” between values parts separate entries of the source, which are not always exact repeats. Equal entries are not always repeated.

Key:
293T cells [1] = assay: Cell survival rate determination (CCK-8); assay type: cell-based
Procedure: (§1) Cell recovery and passage: 293T cells were recovered, cultured in a culture dish, and passaged to the required number of cells.
(§2) Seeding plate: The cells in the culture dish were digested and counted. Cells were spread in a 96-well plate at 10,000 cells per well and in a 12-well plate at 150,000 cells per well. Cells were cultured overnight until the cells adhered to the wall.
(§3) Cell recovery and passage: the method was the same as in Example 3.
(§4) Seeding plate: the method was the same as in Example 3.
An LNP formulation containing […] of Fluc-mRNA (the carrier components of the LNP formulation were cationic lipid, neutral lipid, structured lipid and polymer-conjugated lipid with a molar ratio of 49:10:39.5:1.5, wherein the cationic lipid was listed in Table 1) and the formulation of Lipofectamine 3000 were added to the cell culture medium of a 96-well plate, and further cultivated for 24 hours. 10 μL of CCK-8 solution was then added to each well, and the culture plate was incubated in an incubator for 1 hour. The absorbance at 450 nm was measured by a microplate reader.
Cell survival rate can represent the toxicity of cationic lipids to cells. The higher the cell survival rate, the lower the toxicity to cells.

female BALB/C mice = assay: Live imaging in mice: protein expression of Fluc-mRNA delivered by LNP formulations; assay type: in vivo; settings: for average radiation intensity, times that of ALC-0315: comparator ALC-0315; for average radiation intensity, times that of HHMA: comparator HHMA; for average radiation intensity, times that of SM-102: comparator SM-102; for expression of mRNA in mice, times that of YK-302: comparator YK-302; for expression amount, times that of YK-321: comparator YK-321; for average radiation intensity, times that of compound 21: comparator compound 21; for average radiation intensity, times that of compound 23: comparator compound 23
Procedure: In addition, the protein expression and duration of mRNA in mice delivered by the cationic lipid delivery carriers designed were also verified.
The LNP formulation containing […] Fluc-mRNA was injected intramuscularly into female BALB/C mice aged 4 to 6 weeks old and weighed 17 to 19 g, and the mice were intraperitoneally injected with fluorescent imaging substrate at specific time points after administration (6 h, 24 h, 48 h and 7 d), where the mice were free to move for 5 minutes, and then the average radiation intensity (corresponding to fluorescence expression intensity) of the protein expression of the mRNA carried by the LNP in the mice was detected by the IVIS Spectrum small animal live imaging device.

293T cells [2] = assay: Fluorescent detection of Fluc-mRNA (cell transfection efficiency of LNP formulations); assay type: cell-based
Procedure: as §1, §2, §3, §4
An LNP formulation containing […] of Fluc-mRNA (the carrier components of the LNP formulation were cationic lipid, neutral lipid, structured lipid and polymer-conjugated lipid with a molar ratio of 49:10:39.5:1.5, wherein the cationic lipid was listed in Table 1) was added to the cell culture medium of a 96-well plate, and further incubated for 24 hours. The corresponding reagent was added according to the instructions of the […] Luciferase Assay Kit, and the fluorescence expression intensity of each well was detected by an IVIS fluorescence detection system. This test verified the transfection efficiencies of LNP formulations in cells, see Tables 4-7 for specific test results.

[3] = Particle size and polydispersity index (PDI) of lipid nanoparticles by dynamic light scattering; assay type: physicochemical; settings: LNP formulation prepared from the cationic lipid, 25° C.
Procedure: The particle size and polydispersity index (PDI) were determined by dynamic light scattering using Malvern laser particle size analyzer.
10 μL of the liposome solution was weighed, diluted to 1 mL with RNase-free deionized water, and added to the sample pool. Each sample was measured in triplicate. The measurement conditions were: […] scattering angle, and 25° C.

CCCCCCCCC(CCCCCCCC)OC(=O)CCCCCN(CCCCCC(=O)OC(CCCCCCCC)CCCCCCCC)C[C@H](O)CN(CCO)CCO [YK-318, (S)-bis(heptadecan-9-yl)-6,6′-((3-(bis(2-hydroxyethyl)amino)-2-hydroxypropyl)azanediyl)dihexanoate]
Cell survival rate (%) (293T cells [1]; LNP formulation of Fluc-mRNA, 24 hours, CCK-8): 75.56%
cell survival rate higher than ALC-0315 (293T cells [1]; difference of survival rates, comparator ALC-0315): 24.53%
cell survival rate higher than HHMA (293T cells [1]; difference of survival rates, comparator HHMA): 9.09%
cell survival rate higher than Lipofectamine 3000 (293T cells [1]; difference of survival rates, comparator Lipofectamine 3000): 50.55%
cell survival rate higher than SM-102 (293T cells [1]; difference of survival rates, comparator SM-102): 6.11%
cell survival rate higher than YK-301 (293T cells [1]; difference of survival rates, comparator YK-301): 22.60%
cell survival rate higher than YK-302 (293T cells [1]; difference of survival rates, comparator YK-302): 59.13%
cell survival rate higher than YK-303 (293T cells [1]; difference of survival rates, comparator YK-303): 12.24%
cell survival rate higher than YK-304 (293T cells [1]; difference of survival rates, comparator YK-304): 41.40%
cell survival rate higher than YK-306 (293T cells [1]; difference of survival rates, comparator YK-306): 33.37%
cell survival rate higher than YK-307 (293T cells [1]; difference of survival rates, comparator YK-307): 14.42%
cell survival rate higher than YK-308 (293T cells [1]; difference of survival rates, comparator YK-308): 4.57%
cell survival rate higher than YK-309 (293T cells [1]; difference of survival rates, comparator YK-309): 43.95%
cell survival rate higher than YK-311 (293T cells [1]; difference of survival rates, comparator YK-311): 5.50%
cell survival rate higher than YK-313 (293T cells [1]; difference of survival rates, comparator YK-313): 6.63%
cell survival rate higher than YK-314 (293T cells [1]; difference of survival rates, comparator YK-314): 7.68%
cell survival rate higher than YK-315 (293T cells [1]; difference of survival rates, comparator YK-315): 4.28%
cell survival rate higher than YK-316 (293T cells [1]; difference of survival rates, comparator YK-316): 5.03%
cell survival rate higher than YK-317 (293T cells [1]; difference of survival rates, comparator YK-317): 16.38%
cell survival rate higher than YK-320 (293T cells [1]; difference of survival rates, comparator YK-320): 4.49%
cell survival rate higher than YK-321 (293T cells [1]; difference of survival rates, comparator YK-321): 3.22%
cell survival rate higher than compound 21 (293T cells [1]; difference of survival rates, comparator compound 21): 5.35%
cell survival rate higher than compound 23 (293T cells [1]; difference of survival rates, comparator compound 23): 4.06%
average radiation intensity, times that of ALC-0315 (female BALB/C mice; 6 h): 3.85 times
average radiation intensity, times that of HHMA (female BALB/C mice; 6 h): 5.11 times
average radiation intensity, times that of SM-102 (female BALB/C mice; 6 h): 4.74 times
expression of mRNA in mice, times that of YK-302 (female BALB/C mice; 6 h): 228.10 times
expression amount, times that of YK-321 (female BALB/C mice; 6 h): 6.45 times
average radiation intensity, times that of compound 21 (female BALB/C mice; 6 h): 5.45 times
average radiation intensity, times that of compound 23 (female BALB/C mice; 6 h): 5.64 times
average radiation intensity (female BALB/C mice; 6 h after intramuscular injection): 3325680
average radiation intensity, times that of ALC-0315 (female BALB/C mice; 24 h): 5.08 times
average radiation intensity, times that of HHMA (female BALB/C mice; 24 h): 8.08 times
average radiation intensity, times that of SM-102 (female BALB/C mice; 24 h): 8.04 times
expression of mRNA in mice, times that of YK-302 (female BALB/C mice; 24 h): 244.83 times
expression amount, times that of YK-321 (female BALB/C mice; 24 h): 9.57 times
average radiation intensity, times that of compound 21 (female BALB/C mice; 24 h): 8.82 times
average radiation intensity, times that of compound 23 (female BALB/C mice; 24 h): 9.27 times
average radiation intensity (female BALB/C mice; 24 h after intramuscular injection): 968540
average radiation intensity, times that of ALC-0315 (female BALB/C mice; 48 h): 8.96 times
average radiation intensity, times that of HHMA (female BALB/C mice; 48 h): 10.96 times
average radiation intensity, times that of SM-102 (female BALB/C mice; 48 h): 10.96 times
expression of mRNA in mice, times that of YK-302 (female BALB/C mice; 48 h): 348.11 times
expression amount, times that of YK-321 (female BALB/C mice; 48 h): 9.76 times
average radiation intensity, times that of compound 21 (female BALB/C mice; 48 h): 11.52 times
average radiation intensity, times that of compound 23 (female BALB/C mice; 48 h): 10.77 times
average radiation intensity (female BALB/C mice; 48 h after intramuscular injection): 356810
average radiation intensity, times that of ALC-0315 (female BALB/C mice; 7 d): 7.19 times
average radiation intensity, times that of HHMA (female BALB/C mice; 7 d): 8.63 times
average radiation intensity, times that of SM-102 (female BALB/C mice; 7 d): 7.65 times
expression of mRNA in mice, times that of YK-302 (female BALB/C mice; 7 d): 131.92 times
expression amount, times that of YK-321 (female BALB/C mice; 7 d): 7.69 times
average radiation intensity, times that of compound 21 (female BALB/C mice; 7 d): 7.86 times
average radiation intensity, times that of compound 23 (female BALB/C mice; 7 d): 8.12 times
average radiation intensity (female BALB/C mice; 7 d after intramuscular injection): 50659
Relative light unit (RLU) (293T cells [2]; LNP formulation of Fluc-mRNA, 96-well plate, 24 hours): 11190068 RLU
Multiples (YK-305) (293T cells [2]; RLU of YK-305 / RLU of the lipid of the line): 2.45
Multiples (YK-310) (293T cells [2]; RLU of YK-310 / RLU of the lipid of the line): 2.31
Multiples (YK-312) (293T cells [2]; RLU of YK-312 / RLU of the lipid of the line): 1.80
Multiples (YK-318) (293T cells [2]; RLU of YK-318 / RLU of the lipid of the line, Tables 5, 7, 11): 1.00
Multiples (YK-319) (293T cells [2]; RLU of YK-319 / RLU of the lipid of the line, Tables 5, 7, 11): 2.19
Ratio relative to SM-102 (293T cells [2]; RLU of the lipid / RLU of SM-102, times that of SM-102): 6.98
cell transfection efficiency, times that of ALC-0315 (293T cells [2]; comparator ALC-0315): 5.50 times
cell transfection efficiency, times that of HHMA (293T cells [2]; comparator HHMA): 5.58 times
cell transfection efficiency, times that of Lipofectamine 3000 (293T cells [2]; comparator Lipofectamine 3000): 9.44 times
cell transfection efficiency, times that of YK-009 (293T cells [2]; comparator YK-009): 2.19 times
cell transfection efficiency, times that of YK-301 (293T cells [2]; comparator YK-301): 13.28 times
cell transfection efficiency, times that of YK-302 (293T cells [2]; comparator YK-302): 402.84 times
cell transfection efficiency, times that of YK-303 (293T cells [2]; comparator YK-303): 17.87 times
cell transfection efficiency, times that of YK-304 (293T cells [2]; comparator YK-304): ~400 times and 540.95 times
cell transfection efficiency, times that of YK-306 (293T cells [2]; comparator YK-306): 5.09 times
cell transfection efficiency, times that of YK-307 (293T cells [2]; comparator YK-307): 2.46 times
cell transfection efficiency, times that of YK-308 (293T cells [2]; comparator YK-308): 4.86 times
cell transfection efficiency, times that of YK-309 (293T cells [2]; comparator YK-309): ~90 times and 89.26 times
cell transfection efficiency, times that of YK-311 (293T cells [2]; comparator YK-311): 5.70 times
cell transfection efficiency, times that of YK-313 (293T cells [2]; comparator YK-313): 12.91 times
cell transfection efficiency, times that of YK-314 (293T cells [2]; comparator YK-314): 20.44 times
cell transfection efficiency, times that of YK-315 (293T cells [2]; comparator YK-315): 7.05 times
cell transfection efficiency, times that of YK-316 (293T cells [2]; comparator YK-316): 2.33 times
cell transfection efficiency, times that of YK-317 (293T cells [2]; comparator YK-317): 3.10 times
cell transfection efficiency, times that of YK-320 (293T cells [2]; comparator YK-320): 4.14 times
cell transfection efficiency, times that of YK-321 (293T cells [2]; comparator YK-321): 7.97 times
cell transfection efficiency, times that of compound 21 (293T cells [2]; comparator compound 21): 7.81 times
cell transfection efficiency, times that of compound 23 (293T cells [2]; comparator compound 23): 8.25 times
PDI (%) [3]: 14.8%
Particle size (nm) [3]: 173 nm
